ChEMBL document CHEMBL5126678, “A New Naphthopyran Derivative Combines c-Myb Inhibition, Microtubule-Targeting Effects, and Antiangiogenic Properties” (ACS Med Chem Lett, 2022)
The source made the active and inactive calls. The calls are words filed in the database; no cut-off is given here.

Experiments:
Sus scrofa = species: Sus scrofa; experiment: Inhibition of porcine brain tubulin polymerization at 5 uM measured at 10 mins interval for 100 mins by turbidimetric assay; format: tissue-based
HCT-116 [1] = experiment: Cytotoxicity against human HCT-116 cells assessed as reduction in cell viability measured after 72 hrs by MTT assay; format: functional, cell-based; details: HCT-116, 72 h
[2] = biological target: Transcriptional activator Myb (Homo sapiens, UniProt P10242); experiment: Inhibition of c-Myb (unknown origin) expressed in HEK293T cells measured after 16 hrs by steady-glo luciferase reporter gene assay; format: cell-based
Transcriptional activator Myb, sequence (P10242 whole entry, the tested form may be a part): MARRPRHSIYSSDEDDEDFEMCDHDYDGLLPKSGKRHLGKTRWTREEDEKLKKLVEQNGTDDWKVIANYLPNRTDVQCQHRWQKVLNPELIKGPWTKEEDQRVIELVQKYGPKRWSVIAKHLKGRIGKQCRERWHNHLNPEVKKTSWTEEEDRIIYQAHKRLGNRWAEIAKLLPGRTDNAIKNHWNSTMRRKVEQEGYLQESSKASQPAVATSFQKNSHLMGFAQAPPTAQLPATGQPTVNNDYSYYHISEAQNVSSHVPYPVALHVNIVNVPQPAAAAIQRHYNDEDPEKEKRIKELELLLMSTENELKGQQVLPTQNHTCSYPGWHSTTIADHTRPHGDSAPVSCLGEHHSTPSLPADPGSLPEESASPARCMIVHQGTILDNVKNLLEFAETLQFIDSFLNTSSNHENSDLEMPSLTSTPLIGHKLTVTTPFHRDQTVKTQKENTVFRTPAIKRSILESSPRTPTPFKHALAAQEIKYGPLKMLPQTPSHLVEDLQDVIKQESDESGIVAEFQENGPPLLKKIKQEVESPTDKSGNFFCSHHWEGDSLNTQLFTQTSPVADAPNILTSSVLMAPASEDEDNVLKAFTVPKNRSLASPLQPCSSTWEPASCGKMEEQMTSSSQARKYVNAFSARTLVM

Tubulin (Homo sapiens) [3] = biological target: T1, Tubulin (Homo sapiens) (UniProt P68371+Q9H4B7+P0DPH7+P68366+Q13509+Q71U36+P04350+Q3ZCM7+P07437+P68363+Q9BQE3+Q6PEY2+Q13885+Q9BVA1+Q9BUF5); experiment: Induction of microtubule fragmentation in human 518A2 cells at 25 nM measured after 24 hrs by immunofluorescence assay; format: cell-based
KB-V1 [4] = experiment: Cytotoxicity against human multidrug-resistant KB-V1 cells assessed as reduction in cell viability measured after 72 hrs by MTT assay; format: functional, cell-based; details: KB-V1, 72 h
[5] = biological target: T2, Caspase-3/Caspase-7 (Homo sapiens) (UniProt P42574+P55210); experiment: Activation of caspase-3/7 activity in human 518A2 cells at 25 nM preincubated for 24 hrs followed by caspase-3/7 fluorogenic substrate addition and measured after 60 mins by fluorescence assay; format: cell-based; details: filed as activator, time 25.0 hrs
T2 sequence (P42574 whole entry, looked up): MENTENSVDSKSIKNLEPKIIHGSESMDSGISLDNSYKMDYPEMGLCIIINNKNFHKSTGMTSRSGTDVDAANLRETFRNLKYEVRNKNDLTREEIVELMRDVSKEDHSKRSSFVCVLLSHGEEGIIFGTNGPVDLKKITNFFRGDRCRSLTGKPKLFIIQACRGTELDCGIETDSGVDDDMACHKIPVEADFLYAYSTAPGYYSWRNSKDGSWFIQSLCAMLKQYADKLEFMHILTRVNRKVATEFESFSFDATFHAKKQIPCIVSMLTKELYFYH
T2 sequence (P55210 whole entry, looked up): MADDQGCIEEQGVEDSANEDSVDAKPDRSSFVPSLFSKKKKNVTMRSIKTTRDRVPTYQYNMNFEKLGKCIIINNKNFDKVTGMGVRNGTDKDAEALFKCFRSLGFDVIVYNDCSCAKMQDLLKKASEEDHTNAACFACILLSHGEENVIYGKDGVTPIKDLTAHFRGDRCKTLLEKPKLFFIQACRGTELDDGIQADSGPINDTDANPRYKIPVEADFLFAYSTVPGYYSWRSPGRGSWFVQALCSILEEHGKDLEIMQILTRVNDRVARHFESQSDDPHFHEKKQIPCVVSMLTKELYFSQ

MCF7 = experiment: Cytotoxicity against human MCF7 cells assessed as reduction in cell viability measured after 72 hrs by MTT assay; format: functional, cell-based; details: MCF7, 72 h
518A2 [6] = experiment: Cytotoxicity against human 518A2 cells assessed as reduction in cell viability measured after 72 hrs by MTT assay; format: functional, cell-based; details: 518A2, 72 h
Tubulin (Homo sapiens) [7] = biological target: T1, Tubulin (Homo sapiens); experiment: Induction of microtubule fragmentation in human 518A2 cells assessed as appearance of area with transverse arcs at 25 nM measured after 24 hrs by immunofluorescence assay; format: cell-based
HCT-116 [8] = experiment: Cytotoxicity against p53-deficient human HCT-116 cells assessed as reduction in cell viability measured after 72 hrs by MTT assay; format: functional, cell-based; details: HCT-116, 72 h
Tubulin (Homo sapiens) [9] = biological target: T1, Tubulin (Homo sapiens); experiment: Induction of microtubule fragmentation in human 518A2 cells assessed as appearance of area with dorsal stress fibre at 25 nM measured after 24 hrs by immunofluorescence assay; format: cell-based
KB-V1 [10] = experiment: Cytotoxicity against human multidrug-resistant KB-V1 cells assessed as reduction in cell viability measured after 72 hrs in presence of verapamil by MTT assay; format: functional, cell-based; details: KB-V1, 72 h
HT-29 = experiment: Cytotoxicity against human HT-29 cells assessed as reduction in cell viability measured after 72 hrs by MTT assay; format: functional, cell-based; details: HT-29, 72 h
[11] = Cytotoxicity against HDFa cells assessed as reduction in cell viability at 0.0005 to 100 uM measured after 72 hrs by MTT assay; format: toxicity, cell-based; details: human, dose 0.0005-100 µM
[12] = Cytotoxicity against human U-87 cells assessed as reduction in cell viability measured after 72 hrs by MTT assay; format: functional, cell-based, U-87MG ATCC; details: U-87 MG
[13] = Effect on angiogenic activity in 24 hrs post-fertilized fil1/EGFP transgenic zebrafish embryo assessed as subintestinal vessel area at 100 nM measured after 48 hrs by fluorescence microscopy (reference value: 100%); format: toxicity, Danio rerio; details: 0.1 µM
[14] = Cytotoxicity against human EA.hy 926 cells assessed as reduction in cell viability measured after 72 hrs by MTT assay; format: toxicity, cell-based
HeLa = experiment: Cytotoxicity against human HeLa cells assessed as reduction in cell viability measured after 72 hrs by MTT assay; format: functional, cell-based
518A2 [15] = experiment: Cell cycle arrest in human […] cells assessed as increase in accumulation at sub-G1 phase at 25 nM measured after 6 to 24 hrs by propidium iodide staining based FACS analysis; format: functional; details: time 6-24 hrs
518A2 [16] = experiment: Cell cycle arrest in human […] cells assessed as increase in accumulation at G2/M phase at 25 nM measured after 6 to 24 hrs by propidium iodide staining based FACS analysis; format: functional; details: time 6-24 hrs
[17] = Hydrolytic stability of compound in DMSO-d6/D2O measured after 7 days by 1H-NMR analysis; format: physicochemical; details: 168 h; time 7 day
[18] = Effect on angiogenic activity in human EA.hy 926 cells assessed as reduction in vessel like 2D structure at 25 nM measured after 5 hrs by light microscopy; format: toxicity, cell-based; details: ea.hy 926, 5 h, 0.025 µM
[19] = biological target: T2, Caspase-3/Caspase-7 (Homo sapiens); experiment: Activation of caspase-3/7 activity in human 518A2 cells at 1 uM preincubated for 6 hrs followed by caspase-3/7 fluorogenic substrate addition and measured after 60 mins by fluorescence assay; format: cell-based; details: filed as activator, time 7.0 hrs
[20] = Drug uptake in cytoplasm of human 518A2 cells at 25 uM measured within 15 mins by confocal microscopy; format: ADME, subcellular; details: 518a2, 0.25 h
[21] = Stability of compound in human 518A2 cell lysate measured after 72 hrs by RP-HPLC analysis; format: ADME, subcellular; details: 518a2, 72 h
[22] = Stability of compound in human 518A2 cell lysate at 100 uM measured after 24 hrs by UV-absorption spectra analysis; format: ADME, subcellular; details: 518a2, 24 h

Compound | inhibition (Sus scrofa) | IC50 (HCT-116 [1]) [µM] | IC50 [2] [µM] | Activity (Tubulin (Homo sapiens) [3]) | IC50 (KB-V1 [4]) [µM] | Activity [5] | IC50 (MCF7) [µM] | IC50 (518A2 [6]) [µM] | Activity (Tubulin (Homo sapiens) [7]) | IC50 (HCT-116 [8]) [µM] | Activity (Tubulin (Homo sapiens) [9]) | IC50 (KB-V1 [10]) [µM] | IC50 (HT-29) [µM] | Activity [11] | IC50 [12] [µM] | Activity [13] [%] | IC50 at 72 h [14] [µM] | IC50 (HeLa) [µM] | Activity (518A2 [15]) | Activity (518A2 [16]) | also measured
C=CCOc1c(OC)cc(C2C(C#N)=C(N)Oc3c2ccc2ccccc32)cc1OC (configuration not stated) | Active | 0.193 | 0.014 | Active | 0.0187 | Active | 0.0433 | 0.0036 | Active | 0.0159 | Active | 0.0159 | 0.395 | Toxic | 0.0057 | 31.3 | 0.0157 | 0.0222 | Active | Active | –
COc1cc(C2C(C#N)=C(N)Oc3c2ccc2ccccc32)cc(OC)c1OC (configuration not stated) | Active | 0.0222 | 0.0091 | Active | 0.0264 | Active | 0.0341 | 0.0288 | Active | 0.0276 | Active | 0.0088 | 0.324 | Toxic | 0.0052 | 81.4 | 0.0199 | 0.0113 | Active | Active | Stability [17]: Stable; Activity [18]: Toxic
CCCCOc1c(OC)cc(C2C(C#N)=C(N)Oc3c2ccc2ccccc32)cc1OC (configuration not stated) | Active | 0.0674 | 0.03 | Active | 0.0845 | Active | 0.103 | 0.143 | Active | 0.172 | Active | 0.0416 | 0.671 | Toxic | 0.0463 | 87.6 | 0.078 | 0.0989 | – | – | –
CCCOc1c(OC)cc(C2C(C#N)=C(N)Oc3c2ccc2ccccc32)cc1OC (configuration not stated) | Active | 0.0685 | 0.03 | Active | 0.0231 | Active | 0.0214 | 0.0261 | Active | 0.0331 | Active | 0.0163 | 0.284 | Toxic | 0.0274 | 74.5 | 0.0119 | 0.0331 | Active | Active | Activity [18]: Toxic
N#CC1=C(N)Oc2c(ccc3ccccc23)C1c1cccc([N+](=O)[O-])c1 (configuration not stated) | – | 0.00757 | 0.0087 | – | 0.0237 | – | 0.182 | 0.0108 | – | 0.0282 | – | 0.0761 | 0.0321 | – | 0.0677 | – | 0.0295 | 0.0361 | – | – | Stability [17]: Stable
CCOc1c(OC)cc(C2C(C#N)=C(N)Oc3c2ccc2ccccc32)cc1OC (configuration not stated) | Active | 0.0227 | 0.014 | Active | 0.0209 | Active | 0.0281 | 0.025 | Active | 0.0131 | Active | 0.0165 | 0.269 | Toxic | 0.0106 | 78.1 | 0.0062 | 0.0219 | Active | Active | –
COc1cc(C2C(C#N)=C(N)Oc3c2ccc2ccccc32)cc(OC)c1OC(C)C (configuration not stated) | Active | 0.274 | 0.06 | – | 0.089 | Active | 0.265 | 0.266 | – | 0.137 | – | 0.105 | 4.31 | Toxic | 0.0531 | 80.9 | 0.0658 | 0.072 | Active | Active | –
COc1ccc(/C=C\c2cc(OC)c(OC)c(OC)c2)cc1O [COMBRETASTATIN A4] | Active | – | – | Active | – | – | – | – | Active | – | Active | – | – | – | – | – | – | – | – | Active | Stability [17]: Unstable
CN[C@@H]1C[C@H]2O[C@@](C)([C@@H]1OC)n1c3ccccc3c3c4c(c5c6ccccc6n2c5c31)C(=O)NC4 | – | – | – | – | – | – | – | – | – | – | – | – | – | – | – | – | – | – | – | – | Activity [19]: Active
C#CCOc1c(OC)cc(C2C(C#N)=C(N)Oc3c2ccc2ccccc32)cc1OC (configuration not stated) | Active | 0.0752 | 0.011 | Active | 0.0606 | Active | 0.0026 | 0.0206 | Active | 0.0199 | Active | 0.0106 | 0.0369 | Toxic | 0.0052 | 34.5 | 0.0171 | 0.024 | Active | Active | Drug uptake [20]: Active; Stability [21]: Stable; Stability [22]: Stable; Stability [17]: Stable; Activity [18]: Toxic
